Results on 25 compounds are retold here after the NIST ThermoML archive (doi:10.1016/j.fluid.2018.09.024).

Each structure is given as a SMILES string. ± gives the expanded uncertainty stated by the source.

The nature of this data set: activity coefficient (dimensionless); of the first substance listed, at infinite dilution; xn = mol fraction of the nth substance listed. To be noted: 101.33 kPa, Liquid, Chromatography, x1 = 0.

Take `CO` [methanol] + CCCCCCCCCCCC[N+](C)(C)CCOc1ccccc1.O=S(=O)([N-]S(=O)(=O)C(F)(F)F)C(F)(F)F: the activity coefficient was determined as 1.1 ± 0.07 (318.15 K); 1.06 ± 0.07 (328.15 K); 1.04 ± 0.07 (338.15 K); 1.01 ± 0.06 (348.15 K); 0.982 ± 0.062 (358.15 K); 0.964 ± 0.061 (368.15 K).

Regarding `CCCC(=O)OC` [methyl butanoate] + CCCCCCCCCCCC[N+](C)(C)CCOc1ccccc1.N#C[N-]C#N, the activity coefficient reads like this: (328.15 K) 1.29 ± 0.08; (338.15 K) 1.34 ± 0.09; (348.15 K) 1.38 ± 0.09; (358.15 K) 1.42 ± 0.09; (368.15 K) 1.46 ± 0.1; (378.15 K) 1.5 ± 0.1.

Consider `CCCC(=O)OC` [methyl butanoate] + CCCCCCCCCCCC[N+](C)(C)CCOc1ccccc1.O=S(=O)([N-]S(=O)(=O)C(F)(F)F)C(F)(F)F, for which the activity coefficient is, setting by setting: (318.15 K) 0.565 ± 0.041; (328.15 K) 0.601 ± 0.042; (338.15 K) 0.636 ± 0.044; (348.15 K) 0.672 ± 0.046; (358.15 K) 0.706 ± 0.047; (368.15 K) 0.741 ± 0.049.

On to `COC(C)=O` [methyl ethanoate] + CCCCCCCCCCCC[N+](C)(C)CCOc1ccccc1.N#C[N-]C#N, for which the activity coefficient was 1.03 ± 0.06 (328.15 K); 1.06 ± 0.07 (338.15 K); 1.09 ± 0.07 (348.15 K); 1.12 ± 0.07 (358.15 K); 1.14 ± 0.07 (368.15 K); 1.17 ± 0.07 (378.15 K).

For the compound `COC(C)=O` [methyl ethanoate] + CCCCCCCCCCCC[N+](C)(C)CCOc1ccccc1.O=S(=O)([N-]S(=O)(=O)C(F)(F)F)C(F)(F)F, the activity coefficient by setting is: (318.15 K) 0.474 ± 0.037; (328.15 K) 0.503 ± 0.038; (338.15 K) 0.534 ± 0.039; (348.15 K) 0.563 ± 0.04; (358.15 K) 0.595 ± 0.042; (368.15 K) 0.628 ± 0.043.

Regarding `CCC(=O)OC` [methyl propanoate] + CCCCCCCCCCCC[N+](C)(C)CCOc1ccccc1.N#C[N-]C#N, the activity coefficient (328.15 K) turned out to be 1.13 ± 0.07; the activity coefficient (338.15 K) came to 1.16 ± 0.07; the activity coefficient (348.15 K) came to 1.19 ± 0.08; the activity coefficient (358.15 K) was 1.22 ± 0.08; the activity coefficient (368.15 K) amounted to 1.25 ± 0.08; the activity coefficient (378.15 K) came out at 1.28 ± 0.08.

Consider `CCC(=O)OC` [methyl propanoate] + CCCCCCCCCCCC[N+](C)(C)CCOc1ccccc1.O=S(=O)([N-]S(=O)(=O)C(F)(F)F)C(F)(F)F, for which the activity coefficient is 0.498 ± 0.038 (318.15 K); 0.53 ± 0.039 (328.15 K); 0.566 ± 0.041 (338.15 K); 0.599 ± 0.042 (348.15 K); 0.633 ± 0.044 (358.15 K); 0.669 ± 0.045 (368.15 K).

Regarding `CC1CCCCC1` [methylcyclohexane] + CCCCCCCCCCCC[N+](C)(C)CCOc1ccccc1.N#C[N-]C#N, the activity coefficient reads like this: (328.15 K) 3.67 ± 0.25; (338.15 K) 3.73 ± 0.25; (348.15 K) 3.78 ± 0.26; (358.15 K) 3.85 ± 0.26; (368.15 K) 3.9 ± 0.27; (378.15 K) 3.95 ± 0.27.

Consider `CC1CCCCC1` [methylcyclohexane] + CCCCCCCCCCCC[N+](C)(C)CCOc1ccccc1.O=S(=O)([N-]S(=O)(=O)C(F)(F)F)C(F)(F)F, for which the activity coefficient runs as follows: (318.15 K) 2.35 ± 0.16; (328.15 K) 2.39 ± 0.16; (338.15 K) 2.43 ± 0.17; (348.15 K) 2.47 ± 0.17; (358.15 K) 2.51 ± 0.17; (368.15 K) 2.55 ± 0.17.

Consider `CCCCCCCCC` [nonane] + CCCCCCCCCCCC[N+](C)(C)CCOc1ccccc1.N#C[N-]C#N, for which the activity coefficient reads like this: (328.15 K) 7.69 ± 0.52; (338.15 K) 7.83 ± 0.53; (348.15 K) 7.95 ± 0.54; (358.15 K) 8.08 ± 0.55; (368.15 K) 8.21 ± 0.56; (378.15 K) 8.34 ± 0.57.

As to `CCCCCCCCC` [nonane] + CCCCCCCCCCCC[N+](C)(C)CCOc1ccccc1.O=S(=O)([N-]S(=O)(=O)C(F)(F)F)C(F)(F)F, the activity coefficient is, setting by setting: (318.15 K) 4.77 ± 0.33; (328.15 K) 4.87 ± 0.33; (338.15 K) 4.96 ± 0.34; (348.15 K) 5.03 ± 0.34; (358.15 K) 5.12 ± 0.35; (368.15 K) 5.18 ± 0.35.

In the case of `C=CCCCCCC` [oct-1-ene] + CCCCCCCCCCCC[N+](C)(C)CCOc1ccccc1.N#C[N-]C#N, the activity coefficient amounted to 4.87 ± 0.33 (328.15 K); 4.98 ± 0.34 (338.15 K); 5.09 ± 0.35 (348.15 K); 5.2 ± 0.35 (358.15 K); 5.29 ± 0.36 (368.15 K); 5.38 ± 0.37 (378.15 K).

As for `C=CCCCCCC` [oct-1-ene] + CCCCCCCCCCCC[N+](C)(C)CCOc1ccccc1.O=S(=O)([N-]S(=O)(=O)C(F)(F)F)C(F)(F)F, the activity coefficient turned out to be 2.97 ± 0.2 (318.15 K); 3.06 ± 0.21 (328.15 K); 3.14 ± 0.21 (338.15 K); 3.23 ± 0.22 (348.15 K); 3.32 ± 0.23 (358.15 K); 3.39 ± 0.23 (368.15 K).

`CCCCCCCC` [octane] + CCCCCCCCCCCC[N+](C)(C)CCOc1ccccc1.N#C[N-]C#N: the activity coefficient runs as follows: (328.15 K) 6.7 ± 0.46; (338.15 K) 6.8 ± 0.46; (348.15 K) 6.87 ± 0.47; (358.15 K) 6.96 ± 0.47; (368.15 K) 7.07 ± 0.48; (378.15 K) 7.15 ± 0.49.

Take `CCCCCCCC` [octane] + CCCCCCCCCCCC[N+](C)(C)CCOc1ccccc1.O=S(=O)([N-]S(=O)(=O)C(F)(F)F)C(F)(F)F: the activity coefficient is, setting by setting: (318.15 K) 4.05 ± 0.28; (328.15 K) 4.14 ± 0.28; (338.15 K) 4.23 ± 0.29; (348.15 K) 4.32 ± 0.29; (358.15 K) 4.41 ± 0.3; (368.15 K) 4.5 ± 0.31.

Take `CCCCCO` [pentan-1-ol] + CCCCCCCCCCCC[N+](C)(C)CCOc1ccccc1.N#C[N-]C#N: the activity coefficient was found to be 0.477 ± 0.037 (328.15 K); 0.491 ± 0.037 (338.15 K); 0.505 ± 0.038 (348.15 K); 0.517 ± 0.039 (358.15 K); 0.53 ± 0.039 (368.15 K); 0.542 ± 0.04 (378.15 K).

As for `CCCCCO` [pentan-1-ol] + CCCCCCCCCCCC[N+](C)(C)CCOc1ccccc1.O=S(=O)([N-]S(=O)(=O)C(F)(F)F)C(F)(F)F, the activity coefficient is 1.34 ± 0.09 (318.15 K); 1.31 ± 0.09 (328.15 K); 1.27 ± 0.08 (338.15 K); 1.24 ± 0.08 (348.15 K); 1.22 ± 0.08 (358.15 K); 1.19 ± 0.08 (368.15 K).

Consider `CCCC(C)=O` [pentan-2-one] + CCCCCCCCCCCC[N+](C)(C)CCOc1ccccc1.N#C[N-]C#N, for which the activity coefficient stood at 0.899 ± 0.057 (328.15 K); 0.936 ± 0.059 (338.15 K); 0.97 ± 0.061 (348.15 K); 1 ± 0.06 (358.15 K); 1.04 ± 0.07 (368.15 K); 1.07 ± 0.07 (378.15 K).

As to `CCCC(C)=O` [pentan-2-one] + CCCCCCCCCCCC[N+](C)(C)CCOc1ccccc1.O=S(=O)([N-]S(=O)(=O)C(F)(F)F)C(F)(F)F, the activity coefficient by setting is: (318.15 K) 0.386 ± 0.033; (328.15 K) 0.41 ± 0.034; (338.15 K) 0.434 ± 0.035; (348.15 K) 0.458 ± 0.036; (358.15 K) 0.481 ± 0.037; (368.15 K) 0.503 ± 0.038.

Consider `CCC(=O)CC` [pentan-3-one] + CCCCCCCCCCCC[N+](C)(C)CCOc1ccccc1.N#C[N-]C#N, for which the activity coefficient was found to be 0.909 ± 0.058 (328.15 K); 0.947 ± 0.06 (338.15 K); 0.981 ± 0.062 (348.15 K); 1.02 ± 0.06 (358.15 K); 1.05 ± 0.07 (368.15 K); 1.08 ± 0.07 (378.15 K).

With `CCC(=O)CC` [pentan-3-one] + CCCCCCCCCCCC[N+](C)(C)CCOc1ccccc1.O=S(=O)([N-]S(=O)(=O)C(F)(F)F)C(F)(F)F, the activity coefficient is, setting by setting: (318.15 K) 0.387 ± 0.034; (328.15 K) 0.412 ± 0.034; (338.15 K) 0.437 ± 0.035; (348.15 K) 0.462 ± 0.036; (358.15 K) 0.486 ± 0.037; (368.15 K) 0.511 ± 0.038.

Consider `CCCO` [propan-1-ol] + CCCCCCCCCCCC[N+](C)(C)CCOc1ccccc1.N#C[N-]C#N, for which the activity coefficient is 0.425 ± 0.035 (328.15 K); 0.435 ± 0.035 (338.15 K); 0.445 ± 0.036 (348.15 K); 0.454 ± 0.036 (358.15 K); 0.463 ± 0.036 (368.15 K); 0.471 ± 0.037 (378.15 K).

`CCCO` [propan-1-ol] + CCCCCCCCCCCC[N+](C)(C)CCOc1ccccc1.O=S(=O)([N-]S(=O)(=O)C(F)(F)F)C(F)(F)F: the activity coefficient is, setting by setting: (318.15 K) 1.28 ± 0.08; (328.15 K) 1.24 ± 0.08; (338.15 K) 1.2 ± 0.08; (348.15 K) 1.17 ± 0.07; (358.15 K) 1.14 ± 0.07; (368.15 K) 1.11 ± 0.07.

As to `CC(C)O` [propan-2-ol] + CCCCCCCCCCCC[N+](C)(C)CCOc1ccccc1.N#C[N-]C#N, the activity coefficient came out at 0.494 ± 0.038 (328.15 K); 0.504 ± 0.038 (338.15 K); 0.512 ± 0.038 (348.15 K); 0.52 ± 0.039 (358.15 K); 0.528 ± 0.039 (368.15 K); 0.535 ± 0.039 (378.15 K).

As to `CC(C)O` [propan-2-ol] + CCCCCCCCCCCC[N+](C)(C)CCOc1ccccc1.O=S(=O)([N-]S(=O)(=O)C(F)(F)F)C(F)(F)F, the activity coefficient (318.15 K) was 1.27 ± 0.08; the activity coefficient (328.15 K) turned out to be 1.22 ± 0.08; the activity coefficient (338.15 K) came to 1.18 ± 0.08; the activity coefficient (348.15 K) was 1.14 ± 0.07; the activity coefficient (358.15 K) stood at 1.11 ± 0.07; the activity coefficient (368.15 K) is 1.08 ± 0.07.
